Results reported in patent US7939534B2, “Certain chemical entities, compositions, and methods” (Cytokinetics, Inc., priority 2006, dated 2011).

target: T1, chicken gizzard smooth muscle myosin subfragment-1 chemically crosslinked to either cardiac or skeletal actin (Gallus gallus, UniProt P10587); experiment: Dose dependent smooth muscle myosin ATPase modulation (pyruvate kinase/horseradish peroxidase/pyruvate oxidase-coupled ATPase assay); type: biochemical; conditions: read-out: IC50 Arithmetic Mean
T1 construct: chicken gizzard smooth muscle myosin subfragment-1; from tissue; host or cells: chicken gizzard
Experimental: In Vitro Model of Dose Dependent Smooth Muscle Myosin Atpase Modulation
Screening assays were performed using a pyruvate kinase and lactate dehydrogenase-coupled ATPase assay containing the following reagents: Potassium PIPES (50 mM ), MgCl2 (3 mM ), KCl (100 mM ), ATP (0.15 mM ), DTT (1 mM ), BSA (0.1 mg/ml), NADH (0.5 mM ), PEP (1.5 mM ), pyruvate kinase (4 U/ml), lactate dehydrogenase (8 U/ml), and antifoam (50 ppm) (concentrations expressed are final assay concentrations). The pH was adjusted to 6.80 at 22° C. by addition of potassium hydroxide. Lead optimization assays were performed with a more sensitive pyruvate kinase/horseradish peroxidase/pyruvate oxidase-coupled ATPase assay containing the following reagents: Potassium PIPES (12 mM ), MgCl2 (2 mM ), KCl (100 mM ), ATP (0.15 mM ), BSA (0.05 mg/ml), potassium phosphate (2 mM ), amplex red (0.1 mM ), PEP (0.1 mM ), pyruvate kinase (4 U/ml), horseradish peroxidase (0.5 U/ml), pyruvate oxidase (0.5 U/ml), and antifoam (50 ppm) (concentrations expressed are final assay concentrations). The pH was adjusted to 7.00 at 22° C. by addition of potassium hydroxide.
The protein components specific to this assay are chicken gizzard smooth muscle myosin subfragment-1 that has been chemically crosslinked to either cardiac or skeletal actin using an excess of 1-Ethyl-3-[3-dimethylaminopropyl]carbodiimide hydrochloride and N-hydroxysuccinimide. The exact concentration of the crosslinked smooth muscle myosin in the assay is determined empirically, by titration to achieve a desired rate of ATP hydrolysis. The concentration varies between protein preparations due to variations in the fraction of active molecules in each preparation.
Compound dose response assays are performed by first preparing a dilution series of test compound, each with an assay mixture containing potassium PIPES, MgCl2, KCl, ATP, BSA, potassium phosphate, amplex red, PEP, crosslinked smooth muscle actomyosin (subfragment-1), antifoam, and water. The assay is started by adding an equal volume of solution containing potassium Pipes, MgCl2, KCl, BSA, potassium phosphate, pyruvate kinase, horseradish peroxidase, pyruvate oxidase, antifoam, and water. ATP hydrolysis is monitored by measuring the fluorescence of amplex red (excitation at 480 nm, emission at 615 nm). The resulting dose response curve is fit by the 4 parameter equation y=Bottom+((Top−Bottom)/(1+((IC50/X)^Hill))). The IC50 is defined as the concentration at which ATPase activity is midway between the top and bottom of the dose response curve.

Row | SMILES | IC50 [µM]
1 | NCc1ncccc1CNC(=O)c1ccc(N2CCCCC2)nc1NCCc1cccc(F)c1 [Compound 40, N-{[2-(aminomethyl)(3-pyridyl)]methyl}(2-{[2-(3-fluorophenyl)ethyl]amino}-6-piperidyl(3-pyridyl))carboxamide] | 0.0656
2 | CC(=O)NC[C@@H]1CCN(c2ccc(C(=O)NCc3cccnc3)c(NCCc3cccc(F)c3)n2)C1 [Compound 1, N-{[(3S)-1-(6-{[2-(3-fluorophenyl)ethyl]amino}-5-[N-(3-pyridylmethyl)carbamoyl](2-pyridyl))pyrrolidin-3-yl]methyl}acetamide] | 3.77
3 | NC(=O)CNC(=O)c1ccc(N2CC[C@@H](O)C2)nc1NCCc1cccc(F)c1 [Compound 2, (6-((3R)-3-hydroxypyrrolidinyl)-2-{[2-(3-fluorophenyl)ethyl]amino}(3-pyridyl))-N-(carbamoylmethyl)carboxamide] | 11.4
4 | O=C(NCc1cccnc1)c1ccc(N2CCCCC2)nc1NCCc1ccccn1 [Compound 45, {6-piperidyl-2-[(2-(2-pyridyl)ethyl)amino](3-pyridyl)}-N-(3-pyridylmethyl)carboxamide] | 13.2
5 | O=C(NCc1cccnc1)c1ccc(N2CCC(CCO)CC2)nc1NCCc1cccc(F)c1 [Compound 23, (2-{[2-(3-fluorophenyl)ethyl]amino}-6-[4-(2-hydroxyethyl)piperidyl](3-pyridyl))-N-(3-pyridylmethyl)carboxamide] | 0.471
6 | NCc1ncccc1CNC(=O)c1ccc(N2CC[C@@H](O)C2)nc1NCCc1cccc(F)c1 [Compound 36, (6-((3R)-3-hydroxypyrrolidinyl)-2-{[2-(3-fluorophenyl)ethyl]amino}(3-pyridyl))-N-{[2-(aminomethyl)(3-pyridyl)]methyl}carboxamide] | 0.327
7 | O=C(NCc1cccnc1)c1ccc(N2CC[C@H](CO)C2)nc1NCCc1cccc(F)c1 [Compound 27, (6-[(3S)-3-(hydroxymethyl)pyrrolidinyl]-2-{[2-(3-fluorophenyl)ethyl]amino}(3-pyridyl))-N-(3-pyridylmethyl)carboxamide] | 0.465
8 | CN(C)C(=O)N[C@@H]1CCN(c2ccc(C(=O)NCc3cccnc3)c(NCCc3cccc(F)c3)n2)C1 [Compound 31, N-[(3R)-1-(6-{[2-(3-fluorophenyl)ethyl]amino}-5-[N-(3-pyridylmethyl)carbamoyl](2-pyridyl))pyrrolidin-3-yl](dimethylamino)carboxamide] | 67.8
9 | CN1CCN(c2ccc(C(=O)NCc3cccnc3)c(NCCc3cccc(F)c3)n2)CC1 [Compound 22, (2-{[2-(3-fluorophenyl)ethyl]amino}-6-(4-methylpiperazinyl)(3-pyridyl))-N-(3-pyridylmethyl)carboxamide] | 59.9
10 | COC(=O)N1CCN=C1c1ccc(C(=O)NCc2cccnc2)c(NCCc2cccc(F)c2)n1 [Compound 50, methyl 2-(6-{[2-(3-fluorophenyl)ethyl]amino}-5-[N-(3-pyridylmethyl)carbamoyl]-2-pyridyl)-2-imidazolinecarboxylate] | 21.2
11 | CNC(=O)CNC(=O)c1ccc(N2CCCC2)nc1NCCc1cccc(F)c1 [Compound 28, 2-[(2-{[2-(3-fluorophenyl)ethyl]amino}-6-pyrrolidinyl(3-pyridyl))carbonylamino]-N-methylacetamide] | 0.329
12 | O=C(NCc1cccnc1)c1ccc(N2CCC2)nc1NCCc1cccc(F)c1 [Compound 32, (6-azetidinyl-2-{[2-(3-fluorophenyl)ethyl]amino}(3-pyridyl))-N-(3-pyridylmethyl)carboxamide] | 1.17

Second part, the compound after the results:

Row | IC50 [µM] | SMILES
13 | 0.0259 | NCc1ncccc1CNC(=O)c1cc(F)c(N2CCCC2)nc1NCCc1cccc(F)c1 [Compound 78, N-{[2-(aminomethyl)(3-pyridyl)]methyl}(5-fluoro-2-{[2-(3-fluorophenyl)ethyl]amino}-6-pyrrolidinyl(3-pyridyl))carboxamide]
14 | 48.5 | CN(C)C(=O)N1CCN(c2ccc(C(=O)NCc3cccnc3)c(NCCc3cccc(F)c3)n2)CC1 [Compound 84, [4-(6-{[2-(3-fluorophenyl)ethyl]amino}-5-[N-(3-pyridylmethyl)carbamoyl](2-pyridyl))piperazinyl]-N,N-dimethylcarboxamide]
15 | 11 | CNC(=O)C1CCN(c2ccc(C(=O)NCc3cccnc3)c(NCCc3cccc(F)c3)n2)CC1 [Compound 114, (2-{[2-(3-fluorophenyl)ethyl]amino}-6-[4-(N-methylcarbamoyl)piperidyl](3-pyridyl))-N-(3-pyridylmethyl)carboxamide]
16 | 0.637 | O=C(NCc1cccnc1)c1ccc(C2=CCCC2)nc1NCCc1cccc(F)c1 [Compound 62, (6-cyclopent-1-enyl-2-{[2-(3-fluorophenyl)ethyl]amino}(3-pyridyl))-N-(3-pyridylmethyl)carboxamide]
17 | 16.7 | O=C(NCc1cccnc1)c1ccc(N2CCC(O)(c3ccccc3)CC2)nc1NCCc1cccc(F)c1 [Compound 111, (2-{[2-(3-fluorophenyl)ethyl]amino}-6-(4-hydroxy-4-phenylpiperidyl)(3-pyridyl))-N-(3-pyridylmethyl)carboxamide]
18 | 23.1 | NC1CCN(c2ccc(C(=O)NCc3cccnc3)c(NCCc3cccc(F)c3)n2)C1 (stereo not shown) [Compound 86, (6-(3-aminopyrrolidinyl)-2-{[2-(3-fluorophenyl)ethyl]amino}(3-pyridyl))-N-(3-pyridylmethyl)carboxamide]
19 | 0.107 | O=C(NCc1cccnc1)c1ccc(N2CC[C@@H](F)C2)nc1NCCc1cccc(F)c1 [Compound 104, (6-((3R)-3-fluoropyrrolidinyl)-2-{[2-(3-fluorophenyl)ethyl]amino}(3-pyridyl))-N-(3-pyridylmethyl)carboxamide]
20 | 0.515 | O=C(NCc1cccnc1)c1ccc(N2CCCC(O)C2)nc1NCCc1cccc(F)c1 (stereo in doubt) [Compound 117, (6-((3S)-3-hydroxypiperidyl)-2-{[2-(3-fluorophenyl)ethyl]amino}(3-pyridyl))-N-(3-pyridylmethyl)carboxamide]
21 | 6.4 | CS(=O)(=O)N1CC=C(c2ccc(C(=O)NCc3cccnc3)c(NCCc3cccc(F)c3)n2)CC1 [Compound 83, (2-{[2-(3-fluorophenyl)ethyl]amino}-6-[1-(methylsulfonyl)(4-1,2,5,6-tetrahydropyridyl)](3-pyridyl))-N-(3-pyridylmethyl)carboxamide]
22 | 39.1 | NCC1CCN(c2ccc(C(=O)NCc3cccnc3)c(NCCc3cccc(F)c3)n2)CC1 [Compound 105, (6-[4-(aminomethyl)piperidyl]-2-{[2-(3-fluorophenyl)ethyl]amino}(3-pyridyl))-N-(3-pyridylmethyl)carboxamide]
23 | 29.9 | O=C(NCc1cccnc1)c1ccc(N2CCS(=O)(=O)CC2)nc1NCCc1cccc(F)c1 [Compound 122, (6-(1,1-dioxo(1,4-thiazaperhydroin-4-yl))-2-{[2-(3-fluorophenyl)ethyl]amino}(3-pyridyl))-N-(3-pyridylmethyl)carboxamide]
24 | 29.7 | O=C(NCc1cccnc1)c1ccc(N2CCC(N3CCCCC3)CC2)nc1NCCc1cccc(F)c1 [Compound 124, (2-{[2-(3-fluorophenyl)ethyl]amino}-6-(4-piperidylpiperidyl)(3-pyridyl))-N-(3-pyridylmethyl)carboxamide]
25 | 7.21 | O=C(NCc1cccnc1)c1ccc(N2CCOC(CO)C2)nc1NCCc1cccc(F)c1 (stereo not shown) [Compound 119, (2-{[2-(3-fluorophenyl)ethyl]amino}-6-[2-(hydroxymethyl)morpholin-4-yl](3-pyridyl))-N-(3-pyridylmethyl)carboxamide]
26 | 8.25 | CNC(=O)CNC(=O)c1ccc(N2CC[C@H](O)C2)nc1NCCc1cccc(F)c1 [Compound 89, 2-[(6-((3S)-3-hydroxypyrrolidinyl)-2-{[2-(3-fluorophenyl)ethyl]amino}(3-pyridyl))carbonylamino]-N-methylacetamide]
27 | 0.213 | NCc1cccc(CNC(=O)c2ccc(N3CCCC3)nc2NCCc2cccc(F)c2)n1 [Compound 98, N-{[6-(aminomethyl)(2-pyridyl)]methyl}(2-{[2-(3-fluorophenyl)ethyl]amino}-6-pyrrolidinyl(3-pyridyl))carboxamide]
28 | 11.5 | CS(=O)(=O)C1CCN(c2ccc(C(=O)NCc3cccnc3)c(NCCc3cccc(F)c3)n2)C1 (stereo not shown) [Compound 107, (2-{[2-(3-fluorophenyl)ethyl]amino}-6-[3-(methylsulfonyl)pyrrolidinyl](3-pyridyl))-N-(3-pyridylmethyl)carboxamide]
